Assay results from patent US5773421A, “Antifungal fusacandins” (Abbott Laboratories, priority 1995, dated 1998).
Converted amounts (≈) assume the structure as drawn. Where two headings read alike, the source gives them in different places.

Columns and labels:
[1] = system: Nocardia asteroides ATTC 9970; assay: MIC by agar dilution method; assay type: cell-based; conditions: Nocardia asteroides, ATTC9970, 20 h
[2] = system: Streptococcus bovis A-5169; assay: MIC by agar dilution method; assay type: cell-based; conditions: Streptococcus equinus, A5169, 20 h
[3] = system: Streptococcus pyrogenes EES61; assay: MIC by agar dilution method; assay type: cell-based; conditions: Streptococcus, EES61, 20 h
[4] = system: Staphylococcus aureus ATTC 6538p; assay: MIC by agar dilution method; assay type: cell-based; conditions: Staphylococcus aureus, ATTC6538P, 20 h
[5] = system: Saccharomyces cereviseae GS1-36; assay: MIC by agar dilution method; assay type: cell-based; conditions: Saccharomyces, GS136, 20 h
Procedure: (§1) Minimal inhibitory concentrations (MICs) were determined by an agar dilution method. The test compounds were serially diluted in MeOH and 0.2 mL portions were mixed with 20 mL of molten, cooled Sabouraud dextrose agar (Difco). Yeast cell inoculum was prepared by growing cultures on Sabouraud dextrose agar for 18 hours at 32° C. and suspending the cells in phosphate buffered saline. Filamentous fungi were grown under the same conditions for 4 days to obtain spores. The inoculum level for all cultures was adjusted to 10^4 cells using a Petroff-Hauser cell counter. The glutarimide antifungal compounds cycloheximide or amphotericin B were used as a control. Inoculated test plates were incubated at 32° C. and examined after 20 hours.

[6] = system: Torulopsis glabrata ATCC 155; assay: MIC by agar dilution method; assay type: cell-based; conditions: Nakaseomyces glabratus, ATCC155, 20 h
Procedure: as §1

Candida albicans CCH 442 = assay: MIC by agar dilution method; assay type: cell-based
Procedure: as §1

[7] = system: Candida tropicalis NRRL-Y-1; assay: MIC by agar dilution method; assay type: cell-based; conditions: Candida tropicalis, NRRLY1, 20 h
Procedure: as §1

[8] = system: Candida albicans ATCC 997; assay: MIC by agar dilution method; assay type: cell-based; conditions: Candida albicans, ATCC997, 20 h
Procedure: as §1

[9] = system: Aspergillus niger ATCC 164; assay: MIC by agar dilution method; assay type: cell-based; conditions: Aspergillus niger, ATCC164, 20 h
Procedure: as §1

[10] = system: Candida albicans ATCC 623; assay: MIC by agar dilution method; assay type: cell-based; conditions: Candida albicans, ATCC623, 20 h
Procedure: as §1

(1,3)-β-Glucan Synthase = target: T1, (1,3)-β-Glucan Synthase (Candida albicans, UniProt O13428); assay: In vitro inhibition of (1,3)-β-glucan synthase activity, microsomal enzyme preparation; assay type: biochemical; conditions: C. albicans CCH 442 microsomal enzyme
T1 construct: microsomal enzyme preparation C. albicans CCH 442; endogenous in cells; host or cells: Candida albicans CCH 442, microsomes
Procedure: The assay was conducted in a final volume of 100 μL of 2.0 mM UDP-[^14 C]-Glc (0.625 mCi/mmol), 1 mM EDTA, 8% (v/v) glycerol, 20 μM GTPgS, 0.5% Brij-35(v/v) or 0.8% BSA, 80 mM Tris/HCl, pH 7.75, and microsomal enzyme preparation C. albicans CCH 442 (100 μg of protein). A detailed description of this assay is described by Frost, D., Brandt, K. Capobioanco, and Goldman, R., Microbiology 140: 2239-2246 (1994) which is incorporated herein by reference.

[11] = MIC by broth dilution assay; assay type: cell-based; conditions: 144 h, Table 6d, no sorbitol, 2 ×10^5 organisms/mL
Procedure: Minimal inhibitory concentrations (MICs) were determined by a broth dilution assay described by Frost, D., Brandt, K., Cugier, D., and Goldman, R. in J. Antibiotics 48: 306-310 (1995) which is incorporated herein by reference. The final concentration of cells was 2 ×10^5 organisms/mL.

[12] = system: Candida albicans ATCC 38247; assay: MIC by agar dilution method; assay type: cell-based; conditions: ATCC38247; Table 6c; IV Candida albicans ATCC 38247; agar dilution; read-out: MIC IV
Procedure: as §1

[13] = system: Candida albicans ATCC 10231; assay: MIC by agar dilution method; assay type: cell-based; conditions: ATCC10231; Table 6c; I Candida albicans ATCC 10231; agar dilution; read-out: MIC I
Procedure: as §1

Candida albicans 579a = assay: MIC by agar dilution method; assay type: cell-based; conditions: Table 6c; II Candida albicans 579a; agar dilution; read-out: MIC II
Procedure: as §1

[14] = system: Candida albicans ATCC 62376; assay: MIC by agar dilution method; assay type: cell-based; conditions: ATCC62376; Table 6c; V Candida albicans ATCC 62376; agar dilution; read-out: MIC V
Procedure: as §1

[15] = CCH442, Table 6c, 3rd value column (head printed II), III Candida albicans CCH 442, agar dilution, read-out: MIC II

T1 sequence (O13428 1-1897): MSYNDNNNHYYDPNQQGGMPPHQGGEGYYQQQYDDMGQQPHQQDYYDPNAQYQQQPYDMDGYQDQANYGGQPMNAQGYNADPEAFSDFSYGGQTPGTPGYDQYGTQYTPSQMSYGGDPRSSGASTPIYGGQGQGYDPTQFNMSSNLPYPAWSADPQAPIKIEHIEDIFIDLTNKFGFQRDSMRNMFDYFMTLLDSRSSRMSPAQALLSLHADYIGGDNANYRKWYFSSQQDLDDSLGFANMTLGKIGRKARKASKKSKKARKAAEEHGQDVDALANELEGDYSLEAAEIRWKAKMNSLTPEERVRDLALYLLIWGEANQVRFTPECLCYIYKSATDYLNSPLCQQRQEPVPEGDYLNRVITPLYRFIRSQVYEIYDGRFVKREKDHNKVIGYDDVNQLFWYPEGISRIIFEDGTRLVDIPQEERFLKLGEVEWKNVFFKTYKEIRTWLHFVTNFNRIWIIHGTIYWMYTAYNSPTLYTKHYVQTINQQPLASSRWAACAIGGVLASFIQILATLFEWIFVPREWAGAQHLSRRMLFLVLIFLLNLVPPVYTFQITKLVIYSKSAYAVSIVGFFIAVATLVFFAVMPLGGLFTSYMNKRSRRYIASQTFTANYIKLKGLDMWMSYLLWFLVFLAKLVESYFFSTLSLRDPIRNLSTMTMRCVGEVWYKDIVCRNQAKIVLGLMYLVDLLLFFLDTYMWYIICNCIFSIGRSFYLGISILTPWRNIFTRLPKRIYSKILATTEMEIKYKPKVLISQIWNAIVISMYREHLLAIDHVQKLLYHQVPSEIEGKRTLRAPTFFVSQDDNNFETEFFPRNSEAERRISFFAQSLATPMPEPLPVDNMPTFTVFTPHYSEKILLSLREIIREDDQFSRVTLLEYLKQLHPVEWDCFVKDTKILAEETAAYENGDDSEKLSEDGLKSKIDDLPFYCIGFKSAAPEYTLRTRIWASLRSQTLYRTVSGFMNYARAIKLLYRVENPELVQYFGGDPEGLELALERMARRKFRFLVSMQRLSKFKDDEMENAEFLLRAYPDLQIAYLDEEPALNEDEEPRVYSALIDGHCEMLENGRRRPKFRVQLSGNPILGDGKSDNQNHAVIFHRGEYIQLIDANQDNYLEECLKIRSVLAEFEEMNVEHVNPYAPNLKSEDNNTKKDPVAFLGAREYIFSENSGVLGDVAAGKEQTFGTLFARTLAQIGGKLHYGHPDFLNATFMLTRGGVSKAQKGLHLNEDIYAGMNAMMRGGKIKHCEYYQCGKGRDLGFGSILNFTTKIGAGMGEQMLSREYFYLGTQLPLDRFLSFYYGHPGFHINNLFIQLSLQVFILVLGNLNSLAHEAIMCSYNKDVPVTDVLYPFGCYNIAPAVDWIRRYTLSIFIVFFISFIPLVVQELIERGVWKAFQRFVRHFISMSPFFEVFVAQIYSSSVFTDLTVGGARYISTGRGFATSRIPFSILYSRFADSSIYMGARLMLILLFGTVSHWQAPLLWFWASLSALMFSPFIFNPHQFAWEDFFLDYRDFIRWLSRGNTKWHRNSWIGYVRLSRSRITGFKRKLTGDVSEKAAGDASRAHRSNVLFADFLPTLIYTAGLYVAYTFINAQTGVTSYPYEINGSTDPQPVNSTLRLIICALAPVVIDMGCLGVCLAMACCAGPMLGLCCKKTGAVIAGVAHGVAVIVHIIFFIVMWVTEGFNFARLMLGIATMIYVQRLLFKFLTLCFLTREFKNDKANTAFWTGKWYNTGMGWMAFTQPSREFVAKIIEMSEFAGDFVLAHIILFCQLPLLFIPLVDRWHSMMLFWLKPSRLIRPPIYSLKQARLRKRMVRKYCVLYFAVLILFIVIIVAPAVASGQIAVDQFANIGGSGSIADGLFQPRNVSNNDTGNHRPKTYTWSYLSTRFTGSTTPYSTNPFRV

| Structure (SMILES) | MIC [12] | MIC [13] | MIC (Candida albicans 579a) | MIC (Candida albicans CCH 442; [15]) | MIC [14] | further results |
| --- | --- | --- | --- | --- | --- | --- |
| C[C@@H]1C[C@@H]([C@H](O)CC2CC(=O)NC(=O)C2)C(=O)[C@@H](C)C1 [Cycloheximide, cycloheximide, reference compound] | – | – | – | – | – | MIC [1]: 1.6 µg/mL (≈ 5.69 µM); MIC [2]: 25 µg/mL (≈ 88.9 µM); MIC [3]: 50 µg/mL (≈ 178 µM); MIC [4]: 0.8 µg/mL (≈ 2.84 µM); MIC [5]: < 0.05 µg/mL; MIC [6]: 0.4 µg/mL (≈ 1.42 µM); MIC (Candida albicans CCH 442; Candida albicans, CCH442, 20 h): > 100 µg/mL; MIC [7]: 0.4 µg/mL (≈ 1.42 µM); MIC [8]: > 100 µg/mL; MIC [9]: 1.6 µg/mL (≈ 5.69 µM); MIC [10]: > 100 µg/mL |
| CC/C=C/C/C=C\C=C\C(=O)OC[C@H]1O[C@@H](O[C@H]2[C@H](OC(=O)/C=C/C=C/CC(O)/C=C/C=C/CCCCC)[C@@H](O)[C@H](c3c(O)cc(O)cc3CO)O[C@@H]2CO)[C@H](O[C@@H]2O[C@H](CO)[C@H](O)[C@H](O)[C@H]2O)[C@@H](O)[C@H]1O (stereo partly drawn) [Example 9, fusacandin C] | – | – | – | – | – | IC50 ((1,3)-β-Glucan Synthase; 0.5% Brij-35, read-out: IC50 With Brij-35 (converted)): 35 µM; IC50 ((1,3)-β-Glucan Synthase; 0.8% BSA, read-out: IC50 With BSA (converted)): 194 µM; MIC [11]: 1.95 µg/mL (≈ 1.91 µM) |
| CCCCC/C=C/C=C/[C@@H](O)C/C=C/C=C/C(=O)O[C@@H]1[C@@H](O)[C@H](c2c(O)cc(O)cc2CO)O[C@H](CO)[C@H]1O[C@@H]1O[C@H](COC(=O)c2cccc(-c3ccc(-c4ccccc4)cc3)c2)[C@H](O)[C@H](O)[C@H]1O[C@@H]1O[C@H](CO)[C@H](O)[C@H](O)[C@H]1O [Example 34] | 6.25 µg/mL (≈ 5.53 µM) | 6.25 µg/mL (≈ 5.53 µM) | 3.12 µg/mL (≈ 2.76 µM) | 6.25 µg/mL (≈ 5.53 µM) | 3.12 µg/mL (≈ 2.76 µM) | – |

Second part, led by results:

| MIC [12] | MIC [13] | MIC (Candida albicans 579a) | MIC (Candida albicans CCH 442; [15]) | MIC [14] | Structure (SMILES) | further results |
| --- | --- | --- | --- | --- | --- | --- |
| 3.12 µg/mL (≈ 2.92 µM) | 3.12 µg/mL (≈ 2.92 µM) | 1.56 µg/mL (≈ 1.46 µM) | 3.12 µg/mL (≈ 2.92 µM) | 3.12 µg/mL (≈ 2.92 µM) | CCCCC/C=C/C=C/[C@@H](O)C/C=C/C=C/C(=O)O[C@@H]1[C@@H](O)[C@H](c2c(O)cc(O)cc2CO)O[C@H](CO)[C@H]1O[C@@H]1O[C@H](COC(=O)c2ccc(Oc3ccccc3)cc2)[C@H](O)[C@H](O)[C@H]1O[C@@H]1O[C@H](CO)[C@H](O)[C@H](O)[C@H]1O [Example 31] | – |
| 3.12 µg/mL (≈ 2.88 µM) | 0.78 µg/mL (≈ 0.72 µM) | 1.56 µg/mL (≈ 1.44 µM) | 0.78 µg/mL (≈ 0.72 µM) | 0.78 µg/mL (≈ 0.72 µM) | CCCCC/C=C/C=C/[C@@H](O)C/C=C/C=C/C(=O)O[C@@H]1[C@@H](O)[C@H](c2c(O)cc(O)cc2CO)O[C@H](CO)[C@H]1O[C@@H]1O[C@H](COC(=O)c2ccc(-c3ccc(OC)cc3)cc2)[C@H](O)[C@H](O)[C@H]1O[C@@H]1O[C@H](CO)[C@H](O)[C@H](O)[C@H]1O [Example 32] | – |
| 3.12 µg/mL (≈ 2.76 µM) | 1.56 µg/mL (≈ 1.38 µM) | 0.78 µg/mL (≈ 0.691 µM) | 0.78 µg/mL (≈ 0.691 µM) | 0.78 µg/mL (≈ 0.691 µM) | CCCCC/C=C/C=C/[C@@H](O)C/C=C/C=C/C(=O)O[C@@H]1[C@@H](O)[C@H](c2c(O)cc(O)cc2CO)O[C@H](CO)[C@H]1O[C@@H]1O[C@H](COC(=O)c2ccc(-c3ccc(-c4ccccc4)cc3)cc2)[C@H](O)[C@H](O)[C@H]1O[C@@H]1O[C@H](CO)[C@H](O)[C@H](O)[C@H]1O [Example 33] | – |
| 1.56 µg/mL (≈ 1.42 µM) | 1.56 µg/mL (≈ 1.42 µM) | 0.78 µg/mL (≈ 0.711 µM) | 1.56 µg/mL (≈ 1.42 µM) | 1.56 µg/mL (≈ 1.42 µM) | CCCCC/C=C/C=C/[C@@H](O)C/C=C/C=C/C(=O)O[C@@H]1[C@@H](O)[C@H](c2c(O)cc(O)cc2CO)O[C@H](CO)[C@H]1O[C@@H]1O[C@H](COC(=O)c2ccc(-c3ccc4c(c3)OCO4)cc2)[C@H](O)[C@H](O)[C@H]1O[C@@H]1O[C@H](CO)[C@H](O)[C@H](O)[C@H]1O [Example 36] | – |
